Source: BindingDB's records for patent US20240010684 (Bayer Aktiengesellschaft, 2024)
Where a SMILES comes first, the peptide text is derived from it. Bridges are numbered along the chain shown (N, C = ends). [ ]: non-standard residue; d: D form. Oic = O=C(O)[C@@H]1C[C@@H]2CCCC[C@@H]2N1; Pen = CC(C)(S)[C@H](N)C(=O)O

How the values were obtained:
[1] = molecular target: T1, Mannan-binding lectin serine protease 1 (Homo sapiens, UniProt P48740); assay: Biochemical Human MASP1 Assay
T1 sequence (P48740 whole entry): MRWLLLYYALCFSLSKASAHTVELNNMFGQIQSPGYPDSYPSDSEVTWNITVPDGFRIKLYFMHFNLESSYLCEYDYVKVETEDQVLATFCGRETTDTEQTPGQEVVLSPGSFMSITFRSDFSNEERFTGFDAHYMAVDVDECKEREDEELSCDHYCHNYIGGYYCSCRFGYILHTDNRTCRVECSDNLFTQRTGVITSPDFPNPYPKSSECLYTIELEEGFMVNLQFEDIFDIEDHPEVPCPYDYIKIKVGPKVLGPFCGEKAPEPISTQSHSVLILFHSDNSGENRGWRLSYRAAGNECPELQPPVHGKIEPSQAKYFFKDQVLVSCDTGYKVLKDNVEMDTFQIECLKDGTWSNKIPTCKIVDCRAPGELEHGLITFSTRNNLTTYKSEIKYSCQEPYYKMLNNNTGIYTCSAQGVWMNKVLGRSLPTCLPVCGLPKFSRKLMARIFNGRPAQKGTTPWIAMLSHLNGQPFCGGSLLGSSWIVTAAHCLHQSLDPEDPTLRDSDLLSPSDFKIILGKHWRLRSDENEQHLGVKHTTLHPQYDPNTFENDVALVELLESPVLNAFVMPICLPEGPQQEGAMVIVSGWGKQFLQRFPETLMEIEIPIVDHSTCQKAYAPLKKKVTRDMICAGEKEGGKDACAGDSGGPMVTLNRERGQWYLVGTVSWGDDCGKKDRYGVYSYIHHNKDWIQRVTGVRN
Experimental: Recombinant human MASP1 enzyme produced in the HEK 293 cells was diluted in the reaction buffer (50 mM HEPES pH 8,0; 100 mM NaCl; 0,01% CHAPS; 0.5 mM Gluthathione) to the concentration of 20 nM and 25 μl was transferred into each single well of 384-well white microtiter plate (Greiner Bio One 781075). 1 μl of the inhibitor compound solution (dissolved in DMSO, at the corresponding concentration) or pure DMSO as a control was added to the same wells. The enzymatic reaction was initiated by addition of 25 μl of 20 μM solution of the FRET substrate ABZ-[…]-Lys (Dnp)-NH2; (ABZ-2-aminobenzoyl; DNP 2,4-dinitrophenyl; custom synthesis by Jerini Peptide Technologies, Berlin) in the reaction buffer. The microtiter plate was incubated for 60-120 min at the temperature of 32 C. The increase of fluorescence intensity was measured in appropriate fluorescence plate reader (e.g. TECAN Ultra) using excitation wavelength of 320 nm and emission wavelength of 420 nm. IC50 values were calculated from percentage of inhibition of human MASP1 activity as a function of test compound concentration.

[2] = molecular target: T2, Mannan-binding lectin serine protease 1 (Rattus norvegicus, UniProt Q8CHN8); assay: Biochemical Rat MASP1 Assay
T2 sequence (Q8CHN8 whole entry): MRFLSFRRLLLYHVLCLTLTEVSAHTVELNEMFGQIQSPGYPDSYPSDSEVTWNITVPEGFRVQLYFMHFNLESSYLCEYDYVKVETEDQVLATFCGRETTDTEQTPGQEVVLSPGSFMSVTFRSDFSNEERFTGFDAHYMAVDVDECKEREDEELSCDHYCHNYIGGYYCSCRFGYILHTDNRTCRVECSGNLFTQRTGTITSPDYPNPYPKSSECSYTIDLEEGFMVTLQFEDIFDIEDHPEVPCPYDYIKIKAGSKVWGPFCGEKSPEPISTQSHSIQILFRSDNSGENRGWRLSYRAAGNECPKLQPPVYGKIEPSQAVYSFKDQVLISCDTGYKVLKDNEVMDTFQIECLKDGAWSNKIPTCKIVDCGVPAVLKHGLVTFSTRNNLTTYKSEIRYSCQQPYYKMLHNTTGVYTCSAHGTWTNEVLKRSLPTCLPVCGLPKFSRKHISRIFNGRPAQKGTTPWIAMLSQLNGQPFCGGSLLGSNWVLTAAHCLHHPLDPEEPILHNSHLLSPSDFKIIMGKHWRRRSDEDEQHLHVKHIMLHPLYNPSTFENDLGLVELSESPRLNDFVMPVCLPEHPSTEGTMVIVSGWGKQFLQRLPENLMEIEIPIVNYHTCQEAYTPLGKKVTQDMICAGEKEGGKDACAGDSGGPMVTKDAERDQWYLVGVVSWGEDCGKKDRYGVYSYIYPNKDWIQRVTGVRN
Experimental: Recombinant […] produced in the HEK 293 cells was diluted in the reaction buffer (50 mM HEPES pH 8,0; 100 mM NaCl; 0,01% CHAPS; 0.5 mM Gluthathione) to the concentration of 4 nM and 25 μl was transferred into each single well of 384-well white microtiter plate (Greiner Bio One 781075). 1 μl of the inhibitor compound solution (dissolved in DMSO, at the corresponding concentration) or pure DMSO as a control was added to the same wells. The enzymatic reaction was initiated by addition of 25 μl of 40 μM solution of the FRET substrate Dabcyl-[…]-Glu(Edans)-NH2; (Dabcyl-4-((4-(dimethylamino)phenyl)azo)benzoic acid; Edans-5-[(2-Aminoethyl) amino]naphthalene-1-sulfonyl; custom synthesis by Jerini Peptide Technologies, Berlin) in the reaction buffer. The microtiter plate was incubated for 60-120 min at the temperature of 32 C. The increase of fluorescence intensity was measured in appropriate fluorescence plate reader (e.g. TECAN Ultra) using excitation wavelength of 340 nm and emission wavelength of 490 nm. IC50 values were calculated from percentage of inhibition of rat […] activity as a function of test compound concentration.

[3] = molecular target: Mannan-binding lectin serine protease 2 (Rattus norvegicus, UniProt Q9JJS8); assay: Biochemical Rat MASP2 Assay
Experimental: 1 μl of the inhibitor compound solution (dissolved in DMSO, at the corresponding concentration) or pure DMSO as a control was added to the same wells. The enzymatic reaction was initiated by addition of 25 μl of 30 μM solution of the FRET substrate Abz-IEGRTSED-(Lys)Dnp-NH2; (ABZ-2-aminobenzoyl; DNP-2,4-dinitrophenyl; custom synthesis by Jerini Peptide Technologies, Berlin) in the reaction buffer. The microtiter plate was incubated for 60-120 min at the temperature of 32 C. The increase of fluorescence intensity was measured in appropriate fluorescence plate reader (e.g. TECAN Ultra) using excitation wavelength of 320 nm and emission wavelength of 420 nm. IC50 values were calculated from percentage of inhibition of rat […] activity as a function of test compound concentration.

[4] = molecular target: Mannan-binding lectin serine protease 2 (Homo sapiens, UniProt O00187); assay: Biochemical Human MASP2 Assay
Experimental: Recombinant human MASP2 enzyme produced in the HEK 293 cells was diluted in the reaction buffer (50 mM HEPES pH 8,0; 100 mM NaCl; 0,01% CHAPS; 0.5 mM Gluthathione) to the concentration of 20 nM and 25 μl was transferred into each single well of 384-well white microtiter plate (Greiner Bio One 781075). 1 μl of the inhibitor compound solution (dissolved in DMSO, at the corresponding concentration) or pure DMSO as a control was added to the same wells. The enzymatic reaction was initiated by addition of 25 μl of 60 μM solution of the FRET substrate DABCYL-[…]-Glu(EDANS) NH2; (Dabcyl-4-((4-(dimethylamino)phenyl)azo)benzoic acid; Edans-5-[(2-Aminoethyl) amino]naphthalene-1-sulfonyl; custom synthesis by Jerini Peptide Technologies, Berlin) in the reaction buffer. The microtiter plate was incubated for 60-120 min at the temperature of 32 C.

Sequence of Mannan-binding lectin serine protease 2 (Homo sapiens, UniProt O00187) (O00187 16-444 limits assumed): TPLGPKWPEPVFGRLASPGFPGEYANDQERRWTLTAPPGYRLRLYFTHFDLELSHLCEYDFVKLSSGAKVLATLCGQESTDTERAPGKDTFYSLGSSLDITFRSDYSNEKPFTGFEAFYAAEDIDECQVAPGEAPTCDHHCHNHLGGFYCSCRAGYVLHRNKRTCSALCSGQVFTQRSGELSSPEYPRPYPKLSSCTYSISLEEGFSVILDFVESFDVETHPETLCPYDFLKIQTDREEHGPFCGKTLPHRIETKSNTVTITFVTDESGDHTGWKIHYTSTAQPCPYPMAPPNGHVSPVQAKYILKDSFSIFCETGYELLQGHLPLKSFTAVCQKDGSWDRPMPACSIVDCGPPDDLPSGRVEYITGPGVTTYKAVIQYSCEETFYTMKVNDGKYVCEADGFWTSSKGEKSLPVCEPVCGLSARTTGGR
Sequence of Mannan-binding lectin serine protease 2 (Homo sapiens, UniProt O00187) (O00187 445-686 limits assumed): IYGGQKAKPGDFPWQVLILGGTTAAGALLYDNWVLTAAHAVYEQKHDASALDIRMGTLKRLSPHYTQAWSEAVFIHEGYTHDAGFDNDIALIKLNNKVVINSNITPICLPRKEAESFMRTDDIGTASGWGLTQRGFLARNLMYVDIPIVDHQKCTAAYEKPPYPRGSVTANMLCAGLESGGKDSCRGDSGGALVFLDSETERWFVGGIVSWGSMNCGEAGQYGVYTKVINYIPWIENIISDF
Sequence of Mannan-binding lectin serine protease 2 (Rattus norvegicus, UniProt Q9JJS8) (Q9JJS8 20-443 limits assumed): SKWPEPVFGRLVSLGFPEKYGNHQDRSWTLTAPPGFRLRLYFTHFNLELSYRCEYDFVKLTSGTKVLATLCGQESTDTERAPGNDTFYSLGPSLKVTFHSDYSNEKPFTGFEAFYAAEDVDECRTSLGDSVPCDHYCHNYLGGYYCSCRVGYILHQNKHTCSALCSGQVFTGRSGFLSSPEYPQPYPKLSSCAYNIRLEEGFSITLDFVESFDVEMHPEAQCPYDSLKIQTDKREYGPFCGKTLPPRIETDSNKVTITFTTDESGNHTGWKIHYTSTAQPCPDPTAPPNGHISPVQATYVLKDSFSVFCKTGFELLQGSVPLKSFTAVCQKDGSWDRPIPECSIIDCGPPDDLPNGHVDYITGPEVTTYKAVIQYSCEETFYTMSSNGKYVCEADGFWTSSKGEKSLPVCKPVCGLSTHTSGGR
Sequence of Mannan-binding lectin serine protease 2 (Rattus norvegicus, UniProt Q9JJS8) (Q9JJS8 444-685 limits assumed): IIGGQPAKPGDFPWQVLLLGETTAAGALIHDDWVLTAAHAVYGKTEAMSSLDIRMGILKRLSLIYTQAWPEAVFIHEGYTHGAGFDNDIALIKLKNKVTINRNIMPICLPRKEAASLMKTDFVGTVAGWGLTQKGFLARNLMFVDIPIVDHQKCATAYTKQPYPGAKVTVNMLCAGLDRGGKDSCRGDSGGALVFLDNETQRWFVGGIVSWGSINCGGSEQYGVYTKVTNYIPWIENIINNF

Row | IC50 [1] | IC50 [2] | IC50 [3] | IC50 [4] | Structure (SMILES)
1 | 8.4 nM | 170 nM | 41 nM | 77 nM | CC[C@H](C)[C@@H]1NC(=O)CNC(=O)CNC(=O)[C@H](C)NC(=O)[C@H](CC(=O)O)NC(=O)[C@@H]2CCCN2C(=O)[C@H]([C@@H](C)CC)NC(=O)[C@H]2NC(=O)[C@H]([C@@H](C)CC)NC(=O)[C@@H]3C[C@@H]4CCCC[C@@H]4N3C(=O)[C@@H]3CCCN3C(=O)[C@H](CC(C)C)NC(=O)[C@H](CO)NC(=O)[C@H](CCCNC(=N)N)NC(=O)[C@H](CO)NC(=O)[C@H](CSSC2(C)C)NC1=O [US20240010684, Ex. No 92] (cyclo(AGGICSRSLP[Oic]I[Pen]IPD); disulfide 5-13)
2 | 19 nM | 170 nM |  | 160 nM | CC[C@H](C)[C@@H]1NC(=O)CNC(=O)CNC(=O)[C@H](C)NC(=O)[C@@H](CC(=O)O)NC(=O)[C@@H]2CCCN2C(=O)[C@H]([C@@H](C)CC)NC(=O)[C@H]2NC(=O)[C@H]([C@@H](C)CC)NC(=O)[C@@H]3C[C@@H]4CCCC[C@@H]4N3C(=O)[C@@H]3CCCN3C(=O)[C@H](CC(C)C)NC(=O)[C@H](CO)NC(=O)[C@H](CCCNC(=N)N)NC(=O)[C@H](CO)NC(=O)[C@H](CSSC2(C)C)NC1=O [US20240010684, Ex. No 98] (cyclo(AGGICSRSLP[Oic]I[Pen]IP[dD]); disulfide 5-13)
3 | > 3000 nM |  | 1000 nM | > 3000 nM | CC[C@H](C)[C@@H]1NC(=O)[C@@H]2CCCN2C(=O)[C@@H]2CCCN2C(=O)[C@H]([C@@H](C)CC)NC(=O)[C@H](CO)NC(=O)[C@H](CCCCN)NC(=O)[C@H]([C@@H](C)O)NC(=O)[C@@H]2CSSC[C@H](NC1=O)C(=O)N[C@@H](Cc1ccccc1)C(=O)N1CCC[C@H]1C(=O)N[C@@H](CC(=O)O)C(=O)NCC(=O)N[C@@H](CCCNC(=N)N)C(=O)N2 [US20240010684, Ref. No 2]
